{"source": "ChEMBL document CHEMBL4622956", "about": "“Amide derivatives of Gallic acid: Design, synthesis and evaluation of inhibitory activities against in vitro α-synuclein aggregation” (Bioorg Med Chem, 2020)", "target": "Alpha-synuclein (Homo sapiens, UniProt P37840)", "experiment": "Inhibition of alpha-synuclein (unknown origin) aggregation incubated for 3 days by thioflavin T based fluorescence assay"}
{"molecule": "O=C(O)c1cc(O)c(O)c(O)c1", "note": "[GALLIC ACID]", "values": [{"measurement": "IC50", "value": 4.43, "unit": "µM"}]}
